From patent US20070128217A1 (priority 2003, published 2007)

What was measured:
[1] = test system: control sera (pooled serum of ten healthy LUMC hospital workers; commercial negative donor pooled serum from the Dutch bloodbank); assay type: binding, human; set-up: Binding of Control serum LUMC to linear peptides / Binding of Control serum Blood-bank to linear peptides / Binding of Control serum LUMC to looped peptides / Binding of Control Serum Blood-Bank to Looped peptides / Binding of Control serum LUMC to linear peptides of the protein M of SARS-CoV Urbani / Binding of Control serum Blood-bank to linear peptides of the protein M of SARS-CoV Urbani / Binding of Control serum LUMC to looped peptides of the protein M of SARS-CoV Urbani / Binding of Control Serum Blood-Bank to Looped peptides of the protein M of SARS-CoV Urbani: unit not given here
[2] = test system: rabbit serum obtained by immunizing a rabbit with the SARS-CoV strain Frankfurt 1; assay type: binding; set-up: Binding of a rabbit serum to linear peptides / Binding of a rabbit serum to looped peptides / Rabbit serum linear peptides / Rabbit serum looped peptides / Binding of a rabbit serum to linear peptides of protein N of SARS-CoV Urbani (Rabbit serum linear peptides) / Binding of a rabbit serum to looped/cyclic peptides of protein N of SARS-CoV Urbani (Rabbit serum looped peptides): unit not given here
[3] = test system: recombinant human anti-SARS-CoV antibody 03-018; assay type: binding; set-up: Binding of antibody 03-018 to linear peptides of the N protein of SARS-CoV Urbani / Binding of antibody 03-018 to looped/cyclic peptides of the N protein of SARS-CoV Urbani: unit not given here
[4] = test system: antibodies in sera from SARS patients (sera 1a, 1b, 2, 6, 37, 62, London, SARS-yellow, SARS-green); assay type: binding, human; set-up: Binding of serum 6 to linear peptides of protein X1 of SARS-CoV Urbani / Binding of serum 37 to linear peptides of protein X1 of SARS-CoV Urbani / Binding of serum 6 to looped/cyclic peptide (PEPSCAN-ELISA) / Binding of serum 37 to looped/cyclic peptide (PEPSCAN-ELISA) / Binding of serum 37 to looped/cyclic peptides of protein X1 of SARS-CoV Urbani / Binding of serum 6 to linear peptides of protein X2 / Binding of serum 37 to linear peptides of protein X2 / Binding of serum 37 to looped/cyclic peptides of protein X2 of SARS-CoV Urbani / Binding of serum 6 to linear peptides of protein M of SARS-CoV Urbani / Binding of serum 37 to linear peptides of protein M of SARS-CoV Urbani / Binding of serum 6 to looped/cyclic peptides of protein M of SARS-CoV Urbani / Binding of serum 37 to looped/cyclic peptides of protein M of SARS-CoV Urbani / Binding of serum 6 to linear peptides of protein X3 of SARS-CoV Urbani / Binding of serum 37 to linear peptides of protein X3 of SARS-CoV Urbani / Binding of serum 37 to looped/cyclic peptides of protein X3 of SARS-CoV Urbani / Binding of serum 6 to linear peptides of protein X4 of SARS-CoV Urbani / Binding of serum 37 to linear peptides of protein X4 of SARS-CoV Urbani / Binding of serum 37 to looped/cyclic peptides of protein X4 of SARS-CoV Urbani / Binding of serum 6 to linear peptides of protein X5 of SARS-CoV Urbani / Binding of serum 37 to linear peptides of protein X5 of SARS-CoV Urbani / Binding of serum 37 to looped/cyclic peptides of protein X5 of SARS-CoV Urbani / Binding of serum 6 to linear peptides of protein N of SARS-CoV Urbani / Binding of serum 37 to linear peptides of protein N of SARS-CoV Urbani / Binding of serum 6 to linear peptide (PEPSCAN-ELISA) / Binding of serum 1a to looped/cyclic peptides of protein N of SARS-CoV Urbani / Binding of serum 1b to looped/cyclic peptides of protein N of SARS-CoV Urbani / Binding of serum 2 to looped/cyclic peptides of protein N of SARS-CoV Urbani / Binding of serum 6 to looped/cyclic peptides of protein N of SARS-CoV Urbani / Binding of serum 37 to looped/cyclic peptides of protein N of SARS-CoV Urbani / Binding of serum 62 to looped/cyclic peptides of protein N of SARS-CoV Urbani / Binding of serum London to looped/cyclic peptides of protein N of SARS-CoV Urbani / Binding of serum SARS-green to looped/cyclic peptides of protein N of SARS-CoV Urbani: unit not given here

Sequence	Binding of Control Serum Blood-Bank to Looped peptides [1]	Binding of Control serum Blood-bank to linear peptides [1]	Binding of Control serum LUMC to linear peptides [1]	Binding of Control serum LUMC to looped peptides [1]	Binding of a rabbit serum to linear peptides of protein N of SARS-CoV Urbani (Rabbit serum linear peptides) [2]	Binding of a rabbit serum to looped/cyclic peptides of protein N of SARS-CoV Urbani (Rabbit serum looped peptides) [2]	Binding of antibody 03-018 to linear peptides of the N protein of SARS-CoV Urbani [3]	Binding of antibody 03-018 to looped/cyclic peptides of the N protein of SARS-CoV Urbani [3]	Binding of serum 1a to looped/cyclic peptides of protein N of SARS-CoV Urbani [4]	Binding of serum 1b to looped/cyclic peptides of protein N of SARS-CoV Urbani [4]	Binding of serum 2 to looped/cyclic peptides of protein N of SARS-CoV Urbani [4]	Binding of serum 6 to looped/cyclic peptides of protein N of SARS-CoV Urbani [4]	Binding of serum 37 to looped/cyclic peptides of protein N of SARS-CoV Urbani [4]	Binding of serum 62 to looped/cyclic peptides of protein N of SARS-CoV Urbani [4]	Binding of serum London to looped/cyclic peptides of protein N of SARS-CoV Urbani [4]	Binding of serum SARS-green to looped/cyclic peptides of protein N of SARS-CoV Urbani [4]	Binding of serum SARS-yellow to looped/cyclic peptides of protein N of SARS-CoV Urbani [4]	Binding of serum 1a to linear peptides of protein N of SARS-CoV Urbani [4]	Binding of serum 1b to linear peptides of protein N of SARS-CoV Urbani [4]	Binding of serum 2 to linear peptides of protein N of SARS-CoV Urbani [4]	also measured
EQTQGNFGDQDLIRQ	0.6	1.0	1.0	0.6	0.2	0.0	0.1	0.0	0.3	0.1	0.4	0.3	0.2	0.3	0.3	1.3	0.3				Recognition of the peptide by sera of SARS-CoV infected individuals, and form (linear, looped/cyclic) in which it is recognized [4]: recognized in linear form
GDGKMKELSPRWYFY	0.7	0.6	0.6	0.8	0.2	0.6	0.1	0.2	0.4	0.3	0.6	0.3	0.7	0.6	0.5	0.5	0.7	0.2	0.1	0.2	Binding of serum 6 to linear peptides of protein N of SARS-CoV Urbani [4]: 0.1; Binding of serum 37 to linear peptides of protein N of SARS-CoV Urbani [4]: 0.5; Binding of serum 62 to linear peptides of protein N of SARS-CoV Urbani [4]: 0.6; Binding of serum London to linear peptides of protein N of SARS-CoV Urbani [4]: 0.4; Binding of serum SARS-green to linear peptides of protein N of SARS-CoV Urbani [4]: 0.3; Binding of serum SARS-yellow to linear peptides of protein N of SARS-CoV Urbani [4]: 0.6
PQRQKKQPTVTLLPA					0.2	0.7	0.1	0.3										0.3	0.2	0.3	Control Serum Blood-Bank Looped peptides [1]: 0.9; Control serum Blood-bank linear peptides [1]: 0.8; Control serum LUMC linear peptides [1]: 0.7; Control serum LUMC looped peptides [1]: 0.7; Binding of serum 6 to linear peptides of protein N of SARS-CoV Urbani [4]: 0.2; Binding of serum 37 to linear peptides of protein N of SARS-CoV Urbani [4]: 0.7; Binding of serum 62 to linear peptides of protein N of SARS-CoV Urbani [4]: 0.7; Binding of serum London to linear peptides of protein N of SARS-CoV Urbani [4]: 0.5; Binding of serum SARS-green to linear peptides of protein N of SARS-CoV Urbani [4]: 0.5; Binding of serum SARS-yellow to linear peptides of protein N of SARS-CoV Urbani [4]: 0.6; Recognition of the peptide by sera of SARS-CoV infected individuals, and form (linear, looped/cyclic) in which it is recognized [4]: recognized in looped/cyclic form
EELRFPRGQGVPINT	1.3	0.8	0.8	1.1	0.1	0.6	0.1	0.3	0.6	0.4	0.8	0.5	1.0	1.2	0.7	0.9	0.8	0.2	0.1	0.3	Binding of serum 6 to linear peptides of protein N of SARS-CoV Urbani [4]: 0.2; Binding of serum 37 to linear peptides of protein N of SARS-CoV Urbani [4]: 0.7; Binding of serum 62 to linear peptides of protein N of SARS-CoV Urbani [4]: 0.7; Binding of serum London to linear peptides of protein N of SARS-CoV Urbani [4]: 0.5; Binding of serum SARS-green to linear peptides of protein N of SARS-CoV Urbani [4]: 0.4; Binding of serum SARS-yellow to linear peptides of protein N of SARS-CoV Urbani [4]: 0.6
SKKPRQKRTATKQYN	0.6	0.8	0.7	0.5	0.2	0.1	0.1	0.2	0.3	0.1	0.4	0.3	0.6	0.6	0.5	0.1	0.3				Binding of serum 1a to linear peptide (PEPSCAN-ELISA) [4]: 0.2; Binding of serum 1b to linear peptide (PEPSCAN-ELISA) [4]: 0.1; Binding of serum 2 to linear peptide (PEPSCAN-ELISA) [4]: 0.3; Binding of serum 6 to linear peptide (PEPSCAN-ELISA) [4]: 0.2; Binding of serum 37 to linear peptide (PEPSCAN-ELISA) [4]: 0.6; Binding of serum 62 to linear peptide (PEPSCAN-ELISA) [4]: 0.7; Binding of serum London to linear peptide (PEPSCAN-ELISA) [4]: 0.5; Binding of serum SARS-green to linear peptide (PEPSCAN-ELISA) [4]: 0.1; Binding of serum SARS-yellow to linear peptide (PEPSCAN-ELISA) [4]: 0.4
